Data as given in patent US8426620B2, “Production methods of furan fatty acids” (Kyungpook National University Industry-Academic Cooperation …, priority 2011, dated 2013).
“Also recorded” adds a separate entry of the source.

Test: DPPH radical scavenging (antioxidant) assay
Conditions: for radical scavenging activity (in words): DPPH assay, up to 100 μg/mL, FIG. 8
Protocol: Antioxidant activity was analyzed using 2,2-Diphenyl-1-picryhydrazyl (DPPH) assay according to the reports (22). Briefly, 50 μl of sample solution in DMSO was added to 200 μl of 200 μM DPPH radical solution in a 96-well plate. L-ascorbic acid and α-Tocopherol were used as positive controls. After 30 min of incubation at 37° C., the absorbance at 515 nm was measured. DPPH free radical scavenging activities was calculated using the equation; radical scavenging activity (%)=[1−(Asample−Ablank)/(Acontrol−Ablank)]×100. DMSO was used as a control.

| Compound | radical scavenging activity (in words) | radical scavenging activity (highest concentration tested, 100 μg/mL, 30 min at 37° C., absorbance 515 nm) |
| --- | --- | --- |
| CCCCCCCCc1ccc(CCCCCC(=O)O)o1 [7,10-EODA, 7,10-epoxy-octadeca-7,9-dienoic acid] | radical scavenging activity increasing in a dose-dependent manner; also recorded: increased dose-dependently | 23% |
| CCCCCCCC[C@H](O)/C=C/[C@@H](O)CCCCCC(=O)O [DOD, 7,10-dihydroxy-8(E)-octadecenoic acid, reference compound] | did not show any activity |  |
